According to patent US20200270309A1, “MALEIMIDE GROUP-MODIFIED ANGIOGENESIS INHIBITOR HM-1 AND USE THEREOF” (NANJING ANJI BIOLOGICAL TECHNOLOGY CO., LTD, priority 2017, published 2020):
Marks after values point to notes of the source that are not given here. Peptide text beside a SMILES is read from it. * marks the point of attachment. X64 = O=C1C=CC(=O)N1c1cccc(CCCCCCCCCC(=O)*)c1; X68 = O=C1C=CC(=O)N1c1ccccc1CCCCCCCCCCCC(=O)*; X54 = O=C1C=CC(=O)N1c1cccc(CCCCCCC(=O)*)c1; X46 = O=C1C=CC(=O)N1c1cccc(CCCCC(=O)*)c1

Tests used:
[1] = tested on: choroidal neovascularization; assay: Choroidal neovascularization in rats (laser photocoagulation, FFA); type: in vivo; conditions: BN rats
Procedure: 6-8 weeks male BN rats were fully anesthetized by intraperitoneal injection of 846 compound anesthetic with a concentration of 0.5 mL/kg. Compound tropicamide eye drops were used once 5 min before laser photocoagulation to fully dilate the pupils of both eyes. The animals were fixed and subjected to krypton laser photocoagulation equidistantly around an optic disc with the aid of a −53.00D corneal contact lens at a distance of 2PD from the optic disc. A total of 8 photocoagulation spots were obtained. The laser wavelength was 647.1 nm, the power was 350 mW, and the diameter and time of the photocoagulation spots were 50 μm and 0.05 s respectively. Fundus photography was performed immediately after photocoagulation. FFA, histopathology and transmission electron microscopy were performed on the days 3, 7, 14, 21 and 28 after photocoagulation respectively.
Through fundus photography and FFA examination, it was confirmed that the fluorescein leakage of the photocoagulation spot reached its peak on day 21 after photocoagulation. At the same time, histopathological examination was carried out.
Rats with successful modeling were randomly grouped, with 5 rats in each group. The groups were marked as a negative control group and X1-X90 treatment groups respectively. The rats were injected with normal saline and X1-X90 (the doses of X1-X90 were each 0.05 μM) in the vitreous chamber once a day for 1 week. FFA examination was carried out 3 days, 7 days, 14 days and 28 days after administration.

[2] = tested on: adjuvant arthritis; assay: Rat adjuvant arthritis (AA) animal model; type: in vivo, SD rats; conditions: 4.0 mg/kg
[3] = tested on: splenic lymphocytes; assay: Proliferation of splenic lymphocytes in mice (ConA, MTT); type: cell-based; conditions: ConA-stimulated mouse splenic lymphocytes, 48 h
Procedure: Spleens of mice were taken out under aseptic conditions, washed with blank 1640 culture medium 3 times, ground with a 5 mL syringe core, filtered with a 200-mesh sieve, made into a single cell suspension. The suspension was centrifuged (1000 rpm×5 min), and supernatant was removed. Red blood cells were lysed by Tris-NH4Cl, and placed in ice water bath for 4 min and centrifuged (1000 rpm×5 min). The supernatant was removed, and the cells were washed twice with sterile PBS. Finally, RPMI 1640 culture solution (5 mL) containing 10% calf serum was added to suspend the cells. The cells were counted and the cell concentration was adjusted to 5×10^6 cells/mL, and the cells were cultured in a 96-well culture plate.
Blank control group, concanavalin A (ConA) group and dexamethasone (Dex) group were set in the experiment, and polypeptide X1-X90 groups were set as test groups. After 100 μL of splenic lymphocytes suspension per well was added into each group, 100 μL of blank 1640 culture solution was added into the blank control group, ConA was added into the ConA group, Dex was added into the Dex group, and ConA was added into the test groups on the basis of adding different concentrations of polypeptides X1-X90. The cells were static cultured at 37° C. in a cell incubator for 48 h. After the cultivation was completed, 20 μL of MTT was added to each well, and the cultivation was continued for 4 h. Finally, all the solutions in each well were discarded. 100 μL DMSO was added to each well and shaken, and the OD value at 570 nm was detected with a microplate reader. Five parallel experiments were set in each well.

[4] = tested on: retinal neovascularization (OIR model); assay: Retinal vessels in OIR mice; type: in vivo, C57/B16 mice; conditions: for Area of neovascular plexus (mm^2): dose 0.05 μM in the vitreous chamber on day 13, retinal vessels evaluated on day 17; for Inhibition rate (%): dose 0.05 μM in the vitreous chamber on day 13, retinal vessels evaluated on day 17, vs negative control
Source text: Establishment of an OIR model: Young mice and their mothers were exposed in a 75% hyperoxic environment from day 7 to day 12 after the birth of C57/B16 mice, which caused capillaries in their central retina to disappear rapidly. The mice were returned to the indoor air on day 12, retinal vessels exposed to hyperoxia quickly disappeared, causing extensive abnormal neoangiogenesis, and the central part of the retina remained largely avascular for a long time. After the blood vessels disappeared completely, the mice were injected with normal saline (a negative group), X1-X12, X13-X44, X45-X90 in the vitreous chamber on day 13 respectively, and retinal vessels were evaluated on day 17 ([…] of Texas red labeled tomato agglutinin was injected into the left ventricle to mark unclosed vessels and circulated for 5 min).

[5] = tested on: carrageenan-induced toe swelling; assay: Carrageenan-induced toe swelling in rats; type: in vivo; conditions: SD rats; for Swelling degree 1 h: 1 h after carrageenan; for Swelling degree 3 h: 3 h after carrageenan; for Swelling degree 5 h: 5 h after carrageenan; for Swelling degree 7 h: 7 h after carrageenan
Procedure: The rats were injected once a day, and the model group was given the same volume of normal saline for 3 d and fed normally. […] The foot swelling degree was calculated according to the following formula: foot swelling degree (mL)=foot volume after inflammation-foot volume before inflammation. The number of milliliters of overflow liquid was recorded (method: a ballpoint pen is used to circle the protruding point of the right joint as a measurement mark, and the right hind feet of each rat are sequentially placed into the volume measurer, so that the hind limbs are exposed outside the barrel, and the immersion depth is at the coincidence of the circle and the liquid level. After the foot enters the liquid, the liquid level rises, and the volume of overflow liquid is the volume of the right hind foot of the rat, and the normal volume of the right hind foot of each rat is measured in sequence).

[6] = Half-lives and pharmacokinetic parameters of polypeptides vs HM-1; conditions: in vivo; for half-life: T1/2β (half-life)
[7] = day 3 after administration, total light spot number was 297, 0.05 μM in the vitreous chamber once a day for 1 week
[8] = day 7 after administration, total light spot number was 186, 0.05 μM in the vitreous chamber once a day for 1 week
[9] = day 14 after administration, total light spot number was 137, 0.05 μM in the vitreous chamber once a day for 1 week
[10] = day 28 after administration, total light spot number was 69, 0.05 μM in the vitreous chamber once a day for 1 week
[11] = intravenous in the tail once every five days from day 10, mean±SD

| Compound | CNV Incidence (%) [1, 7] | Leakage Light spot number [1, 7] | CNV Incidence (%) [1, 8] | Leakage Light spot number [1, 8] | CNV Incidence (%) [1, 9] | Leakage Light spot number [1, 9] | CNV Incidence (%) [1, 10] | Leakage Light spot number [1, 10] | A570 nm/A630 nm ([3]; polypeptide dose 0.05 μM) | Inhibition rate (%) ([3]; polypeptide dose 0.05 μM) | A570 nm/A630 nm ([3]; polypeptide dose 0.1 μM) | Inhibition rate (%) ([3]; polypeptide dose 0.1 μM) | A570 nm/A630 nm ([3]; polypeptide dose 0.2 μM) | Inhibition rate (%) ([3]; polypeptide dose 0.2 μM) | Area of neovascular plexus (mm^2) [4] | Inhibition rate (%) [4] | Swelling degree 1 h ([5]; 2.0 mg/kg once a day for 3 d) | Swelling degree 3 h ([5]; 2.0 mg/kg once a day for 3 d) | Swelling degree 5 h ([5]; 2.0 mg/kg once a day for 3 d) | Swelling degree 7 h ([5]; 2.0 mg/kg once a day for 3 d) | other results |
| --- | --- | --- | --- | --- | --- | --- | --- | --- | --- | --- | --- | --- | --- | --- | --- | --- | --- | --- | --- | --- | --- |
| C[C@H](NC(=O)CNC(=O)[C@H](CCCNC(=N)N)NC(=O)CCCCCCc1cccc(N2C(=O)C=CC2=O)c1)C(=O)N[C@@H](CC(=O)O)C(=O)N[C@@H](CCCNC(=N)N)C(=O)N[C@@H](C)C(=O)NCC(=O)NCC(=O)NCC(=O)NCC(=O)N[C@@H](CCCNC(=N)N)C(=O)NCC(=O)N[C@@H](CC(=O)O)C(=O)O [X30] (X54-RGADRAGGGGRGD-OH) | 51.85% | 154 | 48.92% | 91 | 45.99% | 63 | 40.58% | 28 | 0.5725 ± 0.0671 | 15.24% | 0.4914 ± 0.0652 | 27.24% | 0.4759 ± 0.0702 | 29.54% | 0.118 ± 0.012 mm^2 | 44.34%* | 0.26 ± 0.15 mg | 0.36 ± 0.18 mg | 0.40 ± 0.16 mg | 0.35 ± 0.11 mg | Clinical score ([2]; intravenous in the tail once every five days from day 10, four paws scored 0-4, max 16, mean±SD): 5.73 ± 1.05; Joint swelling degree [2, 11]: 0.82 ± 0.12 mm; Left and right paw swelling degree [2, 11]: 3.76 ± 0.64 mm; Swelling degree 1 h ([5]; 4.0 mg/kg once a day for 3 d): 0.25 ± 0.19 mg; Swelling degree 3 h ([5]; 4.0 mg/kg once a day for 3 d): 0.33 ± 0.13 mg; Swelling degree 5 h ([5]; 4.0 mg/kg once a day for 3 d): 0.39 ± 0.18 mg; Swelling degree 7 h ([5]; 4.0 mg/kg once a day for 3 d): 0.34 ± 0.15 mg; AUC(0-inf) [6]: 28300 ± 6880 ng·h/mL; MRT inf [6]: 50.8 ± 10.3 h; clearance [6]: 0.588 mL/min/kg; half-life [6]: 35.2 ± 0.37 h |
| C[C@H](NC(=O)CNC(=O)[C@H](CCCNC(=N)N)NC(=O)CCCCCCCCCc1cccc(N2C(=O)C=CC2=O)c1)C(=O)N[C@@H](CC(=O)O)C(=O)N[C@@H](CCCNC(=N)N)C(=O)N[C@@H](C)C(=O)NCC(=O)NCC(=O)NCC(=O)NCC(=O)N[C@@H](CCCNC(=N)N)C(=O)NCC(=O)N[C@@H](CC(=O)O)C(=O)O [X33] (X64-RGADRAGGGGRGD-OH) | 54.21% | 161 | 46.24% | 86 | 45.26% | 62 | 37.68% | 26 | 0.5669 ± 0.1137 | 16.06% | 0.5297 ± 0.0479 | 21.57% | 0.4492 ± 0.1069 | 33.49% | 0.089 ± 0.029 mm^2 | 58.02%** | 0.22 ± 0.13 mg | 0.37 ± 0.11 mg | 0.42 ± 0.17 mg | 0.35 ± 0.13 mg | Swelling degree 1 h ([5]; 4.0 mg/kg once a day for 3 d): 0.25 ± 0.14 mg; Swelling degree 3 h ([5]; 4.0 mg/kg once a day for 3 d): 0.31 ± 0.13 mg; Swelling degree 5 h ([5]; 4.0 mg/kg once a day for 3 d): 0.44 ± 0.19 mg; Swelling degree 7 h ([5]; 4.0 mg/kg once a day for 3 d): 0.33 ± 0.18 mg; AUC(0-inf) [6]: 34000 ± 7620 ng·h/mL; MRT inf [6]: 60.8 ± 12 h; clearance [6]: 0.49 mL/min/kg; half-life [6]: 42.15 ± 0.26 h |
| C[C@H](NC(=O)CNC(=O)[C@H](CCCNC(=N)N)NC(=O)CCCCc1cccc(N2C(=O)C=CC2=O)c1)C(=O)N[C@@H](CC(=O)O)C(=O)N[C@@H](CCCNC(=N)N)C(=O)N[C@@H](C)C(=O)NCC(=O)NCC(=O)NCC(=O)NCC(=O)N[C@@H](CCCNC(=N)N)C(=O)NCC(=O)N[C@@H](CC(=O)O)C(=O)O [X28] (X46-RGADRAGGGGRGD-OH) | 50.17% | 149 | 46.77% | 87 | 45.26% | 62 | 40.58% | 28 | 0.5765 ± 0.0594 | 14.64% | 0.5541 ± 0.0486 | 17.96% | 0.5087 ± 0.0793 | 24.68% | 0.088 ± 0.004 mm^2 | 58.49%** | 0.29 ± 0.13 mg | 0.35 ± 0.15 mg | 0.45 ± 0.17 mg | 0.36 ± 0.14 mg | Swelling degree 1 h ([5]; 4.0 mg/kg once a day for 3 d): 0.28 ± 0.15 mg; Swelling degree 3 h ([5]; 4.0 mg/kg once a day for 3 d): 0.34 ± 0.11 mg; Swelling degree 5 h ([5]; 4.0 mg/kg once a day for 3 d): 0.37 ± 0.17 mg; Swelling degree 7 h ([5]; 4.0 mg/kg once a day for 3 d): 0.35 ± 0.18 mg; AUC(0-inf) [6]: 25100 ± 7920 ng·h/mL; MRT inf [6]: 45 ± 13 h; clearance [6]: 0.663 mL/min/kg; half-life [6]: 31.19 ± 0.26 h |
| C[C@H](NC(=O)CNC(=O)[C@H](CCCNC(=N)N)NC(=O)CCCCCCCCCCCc1ccccc1N1C(=O)C=CC1=O)C(=O)N[C@@H](CC(=O)O)C(=O)N[C@@H](CCCNC(=N)N)C(=O)N[C@@H](C)C(=O)NCC(=O)NCC(=O)NCC(=O)NCC(=O)N[C@@H](CCCNC(=N)N)C(=O)NCC(=O)N[C@@H](CC(=O)O)C(=O)O [X23] (X68-RGADRAGGGGRGD-OH) | 52.86% | 157 | 45.70% | 85 | 44.53% | 61 | 37.68% | 26 | 0.5946 ± 0.0378 | 11.96% | 0.4982 ± 0.1212 | 26.24% | 0.4363 ± 0.0933 | 35.40% | 0.101 ± 0.002 mm^2 | 52.36%** | 0.28 ± 0.17 mg | 0.34 ± 0.19 mg | 0.37 ± 0.11 mg | 0.35 ± 0.18 mg | Swelling degree 1 h ([5]; 4.0 mg/kg once a day for 3 d): 0.26 ± 0.16 mg; Swelling degree 3 h ([5]; 4.0 mg/kg once a day for 3 d): 0.34 ± 0.19 mg; Swelling degree 5 h ([5]; 4.0 mg/kg once a day for 3 d): 0.38 ± 0.13 mg; Swelling degree 7 h ([5]; 4.0 mg/kg once a day for 3 d): 0.34 ± 0.17 mg; AUC(0-inf) [6]: 25600 ± 8510 ng·h/mL; MRT inf [6]: 45.8 ± 10.6 h; clearance [6]: 0.652 mL/min/kg; half-life [6]: 31.72 ± 0.25 h |
